# Earlier results, collected in article PMC4415995 (Advances in Therapy, 2015).
# Tested on: patients with T2DM
# Settings: cited from earlier work
row,SMILES,maximal UGE [g]
1,Cc1ccc([C@@H]2O[C@H](CO)[C@@H](O)[C@H](O)[C@H]2O)cc1Cc1ccc(-c2ccc(F)cc2)s1 [canagliflozin],85 to 100
2,CCOc1ccc(Cc2cc([C@@H]3O[C@H](CO)[C@@H](O)[C@H](O)[C@H]3O)ccc2Cl)cc1 [dapagliflozin],85 to 100
3,OC[C@H]1O[C@@H](c2ccc(Cl)c(Cc3ccc(O[C@H]4CCOC4)cc3)c2)[C@H](O)[C@@H](O)[C@@H]1O [empagliflozin],85 to 100
4,OC[C@H]1O[C@@H](c2ccc(F)c(Cc3cc4ccccc4s3)c2)[C@H](O)[C@@H](O)[C@@H]1O [ipragliflozin],85 to 100
